Assay results from paper PMC12948223, “HSP70 Interactome‐Mediated Proteolysis Targeting Chimera (HSP70‐PROTAC) for Ferroptosis‐Driven Cancer Treatment” (Advanced Science, 2025).

Assays:
[1] = tested on: HT1080 cells; assay: Cell viability CCK-8 assay; assay type: cell-based, human; settings: Homo sapiens, HT-1080, CCK-8, 48 h, read-out: IC50 (cytotoxicity)
Procedure: To determine whether GPX4 degradation following treatment with HSP70‐PROTACs triggers cancer cell ferroptosis, we initially assessed the viability of HT1080 cells using the CCK‐8 assay after treatment with various concentrations of the tested compounds for 48 h. GPX4 inhibitor ML162, HSP70 inhibitor apoptozole, and two GPX4 non‐degradable HSP70‐PROTAC molecules, GDAz‐Neg1 and GDAz‐Neg2, were selected as controls. […] This remarkable activity might partly be ascribed to the high cell permeability conferred by the piperazine ring. […] We speculated that the potent anti‐proliferative activity of GDAz‐Neg2 may be attributed to the GPX4 inhibition.
The compounds under investigation were initially dissolved in dimethyl sulfoxide (DMSO) to generate stock solutions with a concentration of 10 mM. HT1080 cells or other tested cells were seeded in 96‐well plates at a density of 3000–5000 cells well^−1 and cultured at 37 °C. Following a 24‐h incubation period, the tested compounds were added to the wells at various concentrations (the DMSO stock solutions of all the tested compounds were diluted with culture medium to obtain the designated concentration containing a final concentration of DMSO less than 0.5% (v/v)). The cells were then cultured for an additional 48 or 72 h. Cell Counting Kit 8 (CCK‐8) assay was conducted to examine the effects of the tested compounds on cell viability, and the absorbance was measured at a wavelength of 450 nm. The IC50 values were determined utilizing GraphPad Prism software through nonlinear regression analysis. All experiments were independently repeated at least three times.

[2] = target: T1, GPX4 (Homo sapiens, UniProt P36969); assay: GPX4 degradation by western blot in HT1080 cells; assay type: cell-based; design: determine the changes in the endogenous levels of GPX4 by western blot assay; endogenous in cells; host or cells: HT1080 fibrosarcoma cells, including siRNA-knockdown derivatives
T1 sequence (P36969 1-170 isoform P36969-2): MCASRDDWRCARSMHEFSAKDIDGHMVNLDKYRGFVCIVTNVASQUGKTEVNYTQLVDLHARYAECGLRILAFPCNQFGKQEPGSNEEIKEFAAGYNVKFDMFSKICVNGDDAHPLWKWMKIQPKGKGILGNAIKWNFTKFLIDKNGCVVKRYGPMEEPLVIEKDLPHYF
Procedure: To evaluate the GPX4 degradation efficiency of the synthesized HSP70‐PROTACs GDAz‐1–14, we first selected ferroptosis‐sensitive HT1080 fibrosarcoma cells (highly‐expressing GPX4) treated with different concentrations (0.1, 0.3, 1, and 3 µM) of these chimeras to determine the changes in the endogenous levels of GPX4 by western blot assay after 24 h treatment. […] This finding underscores the crucial role of the linker in HSP70‐PROTAC‐mediated protein degradation. […] In the case of alkyl chain derivatives (GDAz‐6–10), elongating the length of the linker generally led to a decreased GPX4 degrading activity. […] Thus, GDAz‐3 was selected for further evaluation.
Cells were seeded at a density of 4 × 10^5 cells well^−1 in 6‐well plates and allowed to incubate overnight. Cells were incubated with the indicated treatments. Thereafter, the cells were collected and lysed with RIPA buffer containing serine protease and phosphatase inhibitors for 30 min on ice. Proteins were quantified by using a BCA protein assay kit (Beyotime). Subsequently, SDS‐PAGE sample loading buffer was added, and the mixture was heated in a 100 °C metal bath for 10 min to denature the proteins. Protein samples from each group were separated by SDS‐PAGE gel and transferred to a PVDF membrane. After blocking with 5% skim milk for 1 h at room temperature, primary antibodies (GPX4: abcam (#ab125066, 1:1000); Hsp70: abcam (#ab2787, 1:1000); CHIP: HUABIO (#ST7108, 1:1000); UpingBio Technology Co., Ltd. (BRD4, #YP‐Ab‐18034, 1:1000; BAG‐1, #YP‐Ab‐00575, 1:1000); GAPDH: Proteintech (#60004‐1‐Ig, 1:50 000)) were used and incubated at 4 °C overnight on a rotary shaker. After washing the membranes with TBST buffer five times, the membranes were incubated with a second antibody (Cell Signaling Technology, #7074S, 1:1000 and #7076S, 1:1000) at room temperature for 2 h. Ultimately, the membrane was washed five times, and the antibody‐protein complexes were visualized using an ECL luminescence reagent (Biosharp, Shanghai, China). The relative intensities of the bands were analyzed by ImageJ and normalized to a loading control.

| Compound | IC50 [1] [µM] | also measured |
| --- | --- | --- |
| COc1ccc(-c2nc(-c3cc(C(F)(F)F)cc(C(F)(F)F)c3)n(Cc3ccc(C(=O)N4CCN(C(=O)Cn5cc(COc6ccc(N(C(=O)CCl)C(C(=O)NCCc7ccccc7)c7cccs7)cc6Cl)nn5)CC4)cc3)c2-c2ccc(OC)cc2)cc1 (stereo not drawn) [GDAz-14, N-(4-((1-(2-(4-(4-((2-(3,5-bis(trifluoromethyl)phenyl)-4,5-bis(4-methoxyphenyl)-1H-imidazol-1-yl)methyl)benzoyl)piperazin-1-yl)-2-oxoethyl)-1H-1,2,3-triazol-4-yl)methoxy)-3-chlorophenyl)-2-chloro-N-(2-oxo-2-(phenethylamino)-1-(thiophen-2-yl)ethyl)acetamide] | 0.12 |  |
| COc1ccc(-c2nc(-c3cc(C(F)(F)F)cc(C(F)(F)F)c3)n(Cc3ccc(C(=O)NCCCCCCNC(=O)Cn4cc(COc5ccc(N(C(=O)CCl)C(C(=O)NCCc6ccccc6)c6cccs6)cc5Cl)nn4)cc3)c2-c2ccc(OC)cc2)cc1 (stereo not drawn) [GDAz-10, 4-((2-(3,5-bis(trifluoromethyl)phenyl)-4,5-bis(4-methoxyphenyl)-1H-imidazol-1-yl)methyl)-N-(6-(2-(4-((2-chloro-4-(2-chloro-N-(2-oxo-2-(phenethylamino)-1-(thiophen-2-yl)ethyl)acetamido)phenoxy)methyl)-1H-1,2,3-triazol-1-yl)acetamido)hexyl)benzamide] | > 30 |  |
| COc1ccc(-c2nc(-c3cc(C(F)(F)F)cc(C(F)(F)F)c3)n(Cc3ccc(C(=O)NCC4CCN(C(=O)Cn5cc(COc6ccc(N(C(=O)CCl)C(C(=O)NCCc7ccccc7)c7cccs7)cc6Cl)nn5)CC4)cc3)c2-c2ccc(OC)cc2)cc1 (stereo not drawn) [GDAz-12, 4-((2-(3,5-bis(trifluoromethyl)phenyl)-4,5-bis(4-methoxyphenyl)-1H-imidazol-1-yl)methyl)-N-((1-(2-(4-((2-chloro-4-(2-chloro-N-(2-oxo-2-(phenethylamino)-1-(thiophen-2-yl)ethyl)acetamido)phenoxy)methyl)-1H-1,2,3-triazol-1-yl)acetyl)piperidin-4-yl)methyl)benzamide] | > 30 |  |
| COc1ccc(-c2nc(-c3cc(C(F)(F)F)cc(C(F)(F)F)c3)n(Cc3ccc(C(=O)NCCOCCOCCOCCOCCn4cc(COc5ccc(N(C(=O)CCl)C(C(=O)NCCc6ccccc6)c6cccs6)cc5Cl)nn4)cc3)c2-c2ccc(OC)cc2)cc1 (stereo not drawn) [GDAz-4, 4-((2-(3,5-bis(trifluoromethyl)phenyl)-4,5-bis(4-methoxyphenyl)-1H-imidazol-1-yl)methyl)-N-(14-(4-((2-chloro-4-(2-chloro-N-(2-oxo-2-(phenethylamino)-1-(thiophen-2-yl)ethyl)acetamido)phenoxy)methyl)-1H-1,2,3-triazol-1-yl)-3,6,9,12-tetraoxatetradecyl)benzamide] | 0.39 ± 0.08 |  |
| COc1ccc(-c2nc(-c3cc(C(F)(F)F)cc(C(F)(F)F)c3)n(Cc3ccc(C(=O)NCCC4CCN(C(=O)Cn5cc(COc6ccc(N(C(=O)CCl)C(C(=O)NCCc7ccccc7)c7cccs7)cc6Cl)nn5)CC4)cc3)c2-c2ccc(OC)cc2)cc1 (stereo not drawn) [GDAz-13, 4-((2-(3,5-bis(trifluoromethyl)phenyl)-4,5-bis(4-methoxyphenyl)-1H-imidazol-1-yl)methyl)-N-(2-(1-(2-(4-((2-chloro-4-(2-chloro-N-(2-oxo-2-(phenethylamino)-1-(thiophen-2-yl)ethyl)acetamido)phenoxy)methyl)-1H-1,2,3-triazol-1-yl)acetyl)piperidin-4-yl)ethyl)benzamide] | > 30 |  |
| COc1ccc(-c2nc(-c3cc(C(F)(F)F)cc(C(F)(F)F)c3)n(Cc3ccc(C(=O)NCCOCCn4cc(COc5ccc(N(C(=O)CCl)C(C(=O)NCCc6ccccc6)c6cccs6)cc5Cl)nn4)cc3)c2-c2ccc(OC)cc2)cc1 (stereo not drawn) [GDAz-1, 4-((2-(3,5-bis(trifluoromethyl)phenyl)-4,5-bis(4-methoxyphenyl)-1H-imidazol-1-yl)methyl)-N-(2-(2-(4-((2-chloro-4-(2-chloro-N-(2-oxo-2-(phenethylamino)-1-(thiophen-2-yl)ethyl)acetamido)phenoxy)methyl)-1H-1,2,3-triazol-1-yl)ethoxy)ethyl)benzamide] | 21.7 ± 5.3 |  |
| COc1ccc(-c2nc(-c3cc(C(F)(F)F)cc(C(F)(F)F)c3)n(Cc3ccc(C(=O)NCCCCNC(=O)Cn4cc(COc5ccc(N(C(=O)CCl)C(C(=O)NCCc6ccccc6)c6cccs6)cc5Cl)nn4)cc3)c2-c2ccc(OC)cc2)cc1 (stereo not drawn) [GDAz-8, 4-((2-(3,5-bis(trifluoromethyl)phenyl)-4,5-bis(4-methoxyphenyl)-1H-imidazol-1-yl)methyl)-N-(4-(2-(4-((2-chloro-4-(2-chloro-N-(2-oxo-2-(phenethylamino)-1-(thiophen-2-yl)ethyl)acetamido)phenoxy)methyl)-1H-1,2,3-triazol-1-yl)acetamido)butyl)benzamide] | 0.13 ± 0.04 |  |
| COc1ccc(-c2nc(-c3cc(C(F)(F)F)cc(C(F)(F)F)c3)n(Cc3ccc(C(=O)NCCOCCOCCOCCOCCOCCn4cc(COc5ccc(N(C(=O)CCl)C(C(=O)NCCc6ccccc6)c6cccs6)cc5Cl)nn4)cc3)c2-c2ccc(OC)cc2)cc1 (stereo not drawn) [GDAz-5, 4-((2-(3,5-bis(trifluoromethyl)phenyl)-4,5-bis(4-methoxyphenyl)-1H-imidazol-1-yl)methyl)-N-(17-(4-((2-chloro-4-(2-chloro-N-(2-oxo-2-(phenethylamino)-1-(thiophen-2-yl)ethyl)acetamido)phenoxy)methyl)-1H-1,2,3-triazol-1-yl)-3,6,9,12,15-pentaoxaheptadecyl)benzamide] | 0.21 ± 0.03 |  |
| COc1ccc(-c2nc(-c3cc(C(F)(F)F)cc(C(F)(F)F)c3)n(Cc3ccc(C(=O)NCCOCCOCCn4cc(COc5ccc(N(C(=O)CCl)C(C(=O)NCCc6ccccc6)c6cccs6)cc5Cl)nn4)cc3)c2-c2ccc(OC)cc2)cc1 (stereo not drawn) [GDAz-2, 4-((2-(3,5-bis(trifluoromethyl)phenyl)-4,5-bis(4-methoxyphenyl)-1H-imidazol-1-yl)methyl)-N-(2-(2-(2-(4-((2-chloro-4-(2-chloro-N-(2-oxo-2-(phenethylamino)-1-(thiophen-2-yl)ethyl)acetamido)phenoxy)methyl)-1H-1,2,3-triazol-1-yl)ethoxy)ethoxy)ethyl)benzamide] | 0.39 ± 0.11 |  |
| COc1ccc(-c2nc(-c3ccc(OCc4cn(CCOCCOCCOCCNC(=O)CCCC[C@@H]5SC[C@@H]6NC(=O)N[C@@H]65)nn4)cc3)n(Cc3ccc(C(=O)NCCOCCOCCOCCn4cc(COc5ccc(N(C(=O)CCl)C(C(=O)NCCc6ccccc6)c6cccs6)cc5Cl)nn4)cc3)c2-c2ccc(OC)cc2)cc1 (stereo partly drawn) [GDAz-biotin] |  | GPX4 degradation activity of the probe ([2]; HT1080 cells, 24 h, concentration over 5 µM): considerable GPX4 degradation activity |
| COc1ccc(-c2nc(-c3cc(C(F)(F)F)cc(C(F)(F)F)c3)n(Cc3ccc(C(=O)NCCOCCOCCOCCn4cc(COc5ccc(N(C(=O)CO)C(C(=O)NCCc6ccccc6)c6cccs6)cc5Cl)nn4)cc3)c2-c2ccc(OC)cc2)cc1 (stereo not drawn) [GDAz-OH] |  | GPX4 degradation by negative control compounds ([2]; HT1080 cells, 24 h, tested concentrations (Figure 4A)): none of the compounds effectively triggered GPX4 degradation |
| NS(=O)(=O)OC[C@@H]1C[C@@H](n2ccc3c(N[C@H]4CCc5ccccc54)ncnc32)C[C@@H]1O [MLN4924, reference compound] |  | remaining activity at 2.5 µM ([2]; HT-1080, HT1080 cells, MLN4924 2.5 µM alone, read-out: GPX4 % of control): 96% |
